One assay concerns MCF7. The assay can be described thus: CCK-8 proliferation, MCF7 (MCF-7). Format: cell-based. The note with it: Homo sapiens, MCF7; CCK-8; read-out: Inhibitory activity (IC50) on tumor cell proliferation, MCF7. The method, boiled down:
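Tumor cells were cultured at 37°C with 5% CO2, seeded, and after 24h treated with compounds at 10 concentrations starting at 10µM (5-fold serial dilutions).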

The next assay concerns the target T1, CDK6 (Homo sapiens, UniProt Q00534).
T1 construct: evaluate the effects of the compounds of the present disclosure on the expression of target proteins in cells; endogenous in cells; host or cells: MDA-MB-231
The assay can be described thus: Western blot degradation of CDK6 (MDA-MB-231 Cell). Format: cell-based. The following applies: Table D3. Here is the method:
(§1) Conventional Western blot assay was performed to evaluate the effects of the compounds of the present disclosure on the expression of target proteins in cells.
(§2) (1) Cell Seeding and Protein Harvesting: The selected cells were processed according to the cell seeding procedure and protein harvesting procedure in Table III-2. Table III-2 Cell Seeding and Protein Harvesting Procedures
(§3) (2) To the collected supernatant, 5X SDS sample loading buffer was added, followed by denaturation at 95°C for 5 minutes. The denatured samples were then separated by SDS-PAGE electrophoresis on a polyacrylamide gel. Proteins were transferred to a nitrocellulose membrane (0.45 µm NC membrane), blocked with blocking buffer at room temperature for 1 hour, and subjected to antibody incubation and development procedures according to the antibody manufacturer's instructions (Cell Signaling Technology).
(§4) Half-Maximal Degradation Concentration value (the drug concentration required for degrading proteins by 50%, abbreviated as DC50) reads method: comparing the grayscale values of Western blot bands from drug-treated samples with those from blank DMSO-treated controls, and identifying the drug concentration range at which the grayscale value is half that of the DMSO-treated control bands.
(§5) DC50 values can be calculated using ImageJ software to measure grayscale values of Western blot bands from drug-treated samples. The concentration-response curve is fitted to estimate the drug concentration corresponding to half the grayscale value.
(§6) Target protein remaining (%) refers to the percentage of target protein remaining in hPBMC cells after treatment with protein degrader compounds.
(§7) Calculation method for target protein remaining (%): Use ImageJ software to measure grayscale values of Western blot bands from drug (protein degrader)-treated samples. The grayscale value of drug-treated bands is divided by that of internal control protein bands, and the resulting quotient is normalized to obtain the relative percentage of remaining target protein after protein degrader treatment.
(§8) Target protein degradation rate (%) = 100% - target protein remaining (%).
For orientation: Immunoblotting shows a protein as a band on a membrane.

The target of a further assay is T2, CDK4 (Homo sapiens, UniProt P11802).
T2 construct: evaluate the effects of the compounds of the present disclosure on the expression of target proteins in cells; endogenous in cells; host or cells: MDA-MB-231
The assay can be described thus: Western blot degradation of CDK4 (MDA-MB-231 Cell). Format: cell-based. The note with it: Table D3. As for the experimental part:
as §1, §2, §3, §4, §5, §6, §7, §8

For a further assay, the system named is CCRF-CEM. Description: CCK-8 proliferation, CCRF-CEM. Format: cell-based, Human. The following applies: Homo sapiens, CCRF-CEM; CCK-8; 96 hours; read-out: Inhibitory activity (IC50) on tumor cell proliferation, CCRF-CEM. Here is the method:
The tumor cells used herein were cultured in a cell culture medium listed in table A1 at 37°C in an incubator with 5% CO2. Prior to experimentation, all cell lines used were correctly identified by STR profiling, and tested negative for mycoplasma contamination using a mycoplasma detection kit through routine screenings. Table A1. Tumor cells and cell culture medium used in the present disclosure
IC50 values of the compounds of the present disclosure (including the compounds in Table 1, and compounds of examples) were measured using the Meilun Cell Counting Kit-8 kit from Dalian Meilun Biotech Co., Ltd. Assay details are as follows: tumor cells were seeded in a 96-well plate at a density listed in Table A2. After 24h, 100 µL of the inoculated cells were treated with 0.5µL of the compounds of the present disclosure (including the compounds in Tables 1 and 2, and compounds of examples) at 10 different successively decreasing concentrations (starting at the highest concentration of 10µM; 5-fold serial dilutions). After the cells were treated with the compounds of the present disclosure for a period of time, the cell viability detection reagent was added to the culture medium for cell viability assessment according to the instructions provided with the CCK-8 kit. […] The growth inhibition of the compounds of the present disclosure on cells was plotted by Prism Graphpad software, and the IC50 values of the compounds of the present disclosure were calculated therefrom. […] Seeding protocol and treatment time for tumor cells

Another assay concerns the target T3, RSK1 (Homo sapiens, UniProt Q15418).
T3 construct: evaluate the effects of the compounds of the present disclosure on the expression of target proteins in cells; endogenous in cells; host or cells: hPBMC
The assay can be described thus: Western blot degradation of RSK1 (hPBMC). Format: cell-based. The following applies: Table D8. As for the experimental part: as §1, §2, §3, §4, §5, §6, §7, §8

The target of another assay is T4, RSK2 (Homo sapiens, UniProt P51812).
T4 construct: evaluate the effects of the compounds of the present disclosure on the expression of target proteins in cells; endogenous in cells; host or cells: hPBMC
Description: Western blot degradation of RSK2 (hPBMC). Format: cell-based. The note with it: Table D8. As for the experimental part:
as §1, §2, §3, §4, §5, §6, §7, §8

T4 sequence (P51812 whole entry): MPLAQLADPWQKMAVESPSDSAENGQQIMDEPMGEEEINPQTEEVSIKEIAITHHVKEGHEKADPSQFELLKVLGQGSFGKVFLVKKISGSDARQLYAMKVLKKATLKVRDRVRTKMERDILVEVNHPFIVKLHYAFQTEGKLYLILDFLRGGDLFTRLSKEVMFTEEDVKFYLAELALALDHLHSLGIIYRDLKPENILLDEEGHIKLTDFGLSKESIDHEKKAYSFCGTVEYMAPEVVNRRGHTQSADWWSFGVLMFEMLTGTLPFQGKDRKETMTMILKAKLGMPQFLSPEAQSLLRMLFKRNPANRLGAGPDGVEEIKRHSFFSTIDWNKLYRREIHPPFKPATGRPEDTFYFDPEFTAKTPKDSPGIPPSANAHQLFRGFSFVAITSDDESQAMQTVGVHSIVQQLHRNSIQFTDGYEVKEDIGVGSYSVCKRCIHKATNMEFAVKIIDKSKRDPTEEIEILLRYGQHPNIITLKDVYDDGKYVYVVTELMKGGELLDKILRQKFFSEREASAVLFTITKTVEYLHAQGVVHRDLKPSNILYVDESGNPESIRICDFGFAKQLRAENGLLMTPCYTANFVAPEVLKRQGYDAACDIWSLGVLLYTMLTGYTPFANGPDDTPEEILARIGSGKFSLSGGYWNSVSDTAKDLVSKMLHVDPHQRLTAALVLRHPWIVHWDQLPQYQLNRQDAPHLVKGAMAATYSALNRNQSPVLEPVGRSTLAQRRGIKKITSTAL
T2 sequence (P11802 whole entry): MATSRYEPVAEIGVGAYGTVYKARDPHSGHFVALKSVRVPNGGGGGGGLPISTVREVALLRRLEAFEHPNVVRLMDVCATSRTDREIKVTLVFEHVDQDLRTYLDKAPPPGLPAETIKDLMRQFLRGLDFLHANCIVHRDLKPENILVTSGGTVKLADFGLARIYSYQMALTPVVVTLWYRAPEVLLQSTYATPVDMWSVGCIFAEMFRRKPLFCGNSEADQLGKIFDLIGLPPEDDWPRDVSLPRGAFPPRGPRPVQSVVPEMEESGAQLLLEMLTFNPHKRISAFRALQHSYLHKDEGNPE
T3 sequence (Q15418 whole entry): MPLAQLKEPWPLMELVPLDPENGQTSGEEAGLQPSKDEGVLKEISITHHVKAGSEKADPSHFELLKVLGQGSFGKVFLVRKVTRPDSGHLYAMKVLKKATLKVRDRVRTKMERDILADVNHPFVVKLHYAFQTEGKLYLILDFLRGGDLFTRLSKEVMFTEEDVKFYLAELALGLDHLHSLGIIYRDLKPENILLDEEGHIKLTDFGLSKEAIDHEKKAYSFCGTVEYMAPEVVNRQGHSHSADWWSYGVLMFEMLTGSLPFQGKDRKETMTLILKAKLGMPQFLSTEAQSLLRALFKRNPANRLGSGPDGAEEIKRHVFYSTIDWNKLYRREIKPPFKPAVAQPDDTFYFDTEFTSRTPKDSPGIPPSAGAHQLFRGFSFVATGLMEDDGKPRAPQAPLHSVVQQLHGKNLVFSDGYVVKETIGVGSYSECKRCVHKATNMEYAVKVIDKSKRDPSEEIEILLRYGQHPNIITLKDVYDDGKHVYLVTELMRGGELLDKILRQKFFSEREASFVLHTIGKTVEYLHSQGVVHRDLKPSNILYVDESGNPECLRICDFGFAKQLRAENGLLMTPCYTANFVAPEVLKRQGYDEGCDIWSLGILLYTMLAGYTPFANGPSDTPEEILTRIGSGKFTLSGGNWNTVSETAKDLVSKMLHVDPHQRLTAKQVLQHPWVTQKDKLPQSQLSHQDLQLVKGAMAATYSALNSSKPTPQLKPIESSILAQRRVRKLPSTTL
T1 sequence (Q00534 whole entry): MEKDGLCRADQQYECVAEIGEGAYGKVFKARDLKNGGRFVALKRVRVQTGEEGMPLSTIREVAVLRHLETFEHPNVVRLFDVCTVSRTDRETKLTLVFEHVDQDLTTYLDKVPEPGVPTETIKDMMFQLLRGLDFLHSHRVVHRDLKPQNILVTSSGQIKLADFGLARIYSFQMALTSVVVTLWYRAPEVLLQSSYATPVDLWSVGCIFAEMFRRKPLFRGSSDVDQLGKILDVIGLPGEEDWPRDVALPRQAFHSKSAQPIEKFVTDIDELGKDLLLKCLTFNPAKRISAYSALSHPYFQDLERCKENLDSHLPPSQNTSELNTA

Turning to `CC(=O)c1c(C)c2cnc(Nc3ccc(N4CCN(Cc5ccc(C6CCC(=O)NC6=O)cc5)CC4)cn3)nc2n(C2CCCC2)c1=O` (stereo not drawn) [GT-06575, 3-(4-((4-(6-((6-acetyl-8-cyclopentyl-5-methyl-7-oxo-7,8-dihydropyrido[2,3-d]pyrimidin-2-yl)amino)pyridin-3-yl)piperazin-1-yl)methyl)phenyl)piperidine-2,6-dione], the IC50 in the assay with MCF7 fell in the range of 100 to 500 nM. Besides, the “Degradation of substrate protein CDK6 (substrate protein remaining %)” value on CDK6 is “A (A is defined as 0% ≤ substrate protein remaining % ≤ 80%)”. For the same compound, on CDK4, the “Degradation of substrate protein CDK4 (substrate protein remaining %)” value is “A (A is defined as 0% ≤ substrate protein remaining % ≤ 80%)”.

In the case of `CC(=O)c1c(C)c2cnc(Nc3ccc(N4CCN(Cc5ccc(N6CCC(=O)NC6=O)cn5)CC4)cn3)nc2n(C2CCCC2)c1=O` [GT-06578, 1-(6-((4-(6-((6-acetyl-8-cyclopentyl-5-methyl-7-oxo-7,8-dihydropyrido[2,3-d]pyrimidin-2-yl)amino)pyridin-3-yl)piperazin-1-yl)methyl)pyridin-3-yl)dihydropyrimidine-2,4(1H,3H)-dione], in the assay with MCF7, the IC50 lay in the range of 500 to 1000 nM. Also, on CDK6, the “Degradation of substrate protein CDK6 (substrate protein remaining %)” value is on record as “A (A is defined as 0% ≤ substrate protein remaining % ≤ 80%)”. Further, at CDK4, the “Degradation of substrate protein CDK4 (substrate protein remaining %)” value was “B (B is defined as substrate protein remaining % > 80%)”.

For the compound `CC(=O)c1c(C)c2cnc(Nc3ccc(N4CCN(Cc5cccc(NC6CCC(=O)NC6=O)c5)CC4)cn3)nc2n(C2CCCC2)c1=O` (stereo not drawn) [GT-06580, 3-((3-((4-(6-((6-acetyl-8-cyclopentyl-5-methyl-7-oxo-7,8-dihydropyrido[2,3-d]pyrimidin-2-yl)amino)pyridin-3-yl)piperazin-1-yl)methyl)phenyl)amino)pip eridine-2,6-dione], in the assay on MCF7, the IC50 lay in the range of 500 to 1000 nM. The “Degradation of substrate protein CDK6 (substrate protein remaining %)” value on CDK6 was “A (A is defined as 0% ≤ substrate protein remaining % ≤ 80%)”. The “Degradation of substrate protein CDK4 (substrate protein remaining %)” value on CDK4 is recorded as “B (B is defined as substrate protein remaining % > 80%)”.

Consider `CN(C)C(=O)c1cc2cnc(Nc3ccc(N4CCN(Cc5ccnc(N6CCC(=O)NC6=O)c5)CC4)cn3)nc2n1C1CCCC1` [GT-07475, 7-cyclopentyl-2-((5-(4-((2-(2,4-dioxotetrahydropyrimidin-1(2H)-yl)pyridin-4-yl)methyl)piperazin-1-yl)pyridin-2-yl)amino)-N,N-dimethyl-7H-pyrrolo[2,3-d]pyrimidine-6-carboxamide], for which the “Degradation of substrate protein CDK6 (substrate protein remaining %)” value at CDK6 was “A (A is defined as 0% ≤ substrate protein remaining % ≤ 80%)”. Besides, the “Degradation of substrate protein CDK4 (substrate protein remaining %)” value on CDK4 is listed as “A (A is defined as 0% ≤ substrate protein remaining % ≤ 80%)”. In addition, the IC50 in the assay on CCRF-CEM lay within 500 to 1000 nM.

Take `C[C@@H]1CNC(=O)c2cc3ccc(C(=O)Nc4cnn(Cc5ccc(NCc6cc(N7CCC(=O)NC7=O)ncc6F)cc5)c4)nc3n21` [GT-07794, (R)-N-(1-(4-(((2-(2,4-dioxotetrahydropyrimidin-1(2H)-yl)-5-fluoropyridin-4-yl)methyl)amino)benzyl)-1H-pyrazol-4-yl)-9-methyl-6-oxo-6,7,8,9-tetrahydropyrido[3',2':4,5]pyrrolo[1,2-a]pyrazine-2-carboxamide]: the “Degradation of substrate protein RSK1 (substrate protein remaining %)” value at RSK1 was “A (A is defined as 0% ≤ substrate protein remaining % ≤ 80%)”. Also, the “Degradation of substrate protein RSK2 (substrate protein remaining %)” value on RSK2 is “B (B is defined as substrate protein remaining % > 80%)”.

For the compound `C[C@@H]1CNC(=O)c2cc3ccc(C(=O)Nc4cnn(Cc5ccc(N6CCN(Cc7cc(N8CCC(=O)NC8=O)ncc7F)CC6)cc5)c4)nc3n21` [GT-07797, (R)-N-(1-(4-(4-((2-(2,4-dioxotetrahydropyrimidin-1(2H)-yl)-5-fluoropyridin-4-yl)methyl)piperazin-1-yl)benzyl)-1H-pyrazol-4-yl)-9-methyl-6-oxo-6,7,8,9-tetrahydropyrido[3',2':4,5]py rrolo[1,2-a]pyrazine-2-carboxamide], the “Degradation of substrate protein RSK1 (substrate protein remaining %)” value on RSK1 is on record as “A (A is defined as 0% ≤ substrate protein remaining % ≤ 80%)”. For the same compound, the “Degradation of substrate protein RSK2 (substrate protein remaining %)” value on RSK2 is on record as “A (A is defined as 0% ≤ substrate protein remaining % ≤ 80%)”.

As to `C[C@@H]1CNC(=O)c2cc3ccc(C(=O)Nc4cnn(Cc5ccc(N6CCN(Cc7ccnc(N8CCC(=O)NC8=O)c7)CC6)cc5)c4)nc3n21` [GT-07798, (R)-N-(1-(4-(4-((2-(2,4-dioxotetrahydropyrimidin-1(2H)-yl)pyridin-4-yl)methyl)piperazin-1-yl)benzyl)-1H-pyrazol-4-yl)-9-methyl-6-oxo-6,7,8,9-tetrahydropyrido[3',2':4,5]py rrolo[1,2-a]pyrazine-2-carboxamide], the “Degradation of substrate protein RSK1 (substrate protein remaining %)” value at RSK1 is “A (A is defined as 0% ≤ substrate protein remaining % ≤ 80%)”. Besides, on RSK2, the “Degradation of substrate protein RSK2 (substrate protein remaining %)” value is “A (A is defined as 0% ≤ substrate protein remaining % ≤ 80%)”.

Take `C[C@@H]1CNC(=O)c2cc3ccc(C(=O)Nc4cnn(Cc5ccc(N6CCN(Cc7cncc(N8CCC(=O)NC8=O)c7)CC6)cc5)c4)nc3n21` [GT-07925, (R)-N-(1-(4-(4-((5-(2,4-dioxotetrahydropyrimidin-1(2H)-yl)pyridin-3-yl)methyl)piperazin-1-yl)benzyl)-1H-pyrazol-4-yl)-9-methyl-6-oxo-6,7,8,9-tetrahydropyrido[3',2':4,5]py rrolo[1,2-a]pyrazine-2-carboxamide]: on RSK1, the “Degradation of substrate protein RSK1 (substrate protein remaining %)” value is on record as “A (A is defined as 0% ≤ substrate protein remaining % ≤ 80%)”. In addition, the “Degradation of substrate protein RSK2 (substrate protein remaining %)” value on RSK2 was “B (B is defined as substrate protein remaining % > 80%)”.

Regarding `C[C@@H]1CNC(=O)c2cc3ccc(C(=O)Nc4cnn(Cc5ccc(N6CCN(Cc7ccc(N8CCC(=O)NC8=O)cc7)CC6)cc5)c4)nc3n21` [GT-07927, (R)-N-(1-(4-(4-(4-(2,4-dioxotetrahydropyrimidin-1(2H)-yl)benzyl)piperazin-1-yl)benzyl)-1H-pyrazol-4-yl)-9-methyl-6-oxo-6,7,8,9-tetrahydropyrido[3',2':4,5]py rrolo[1,2-a]pyrazine-2-carboxamide], the “Degradation of substrate protein RSK1 (substrate protein remaining %)” value at RSK1 is reported as “A (A is defined as 0% ≤ substrate protein remaining % ≤ 80%)”. The “Degradation of substrate protein RSK2 (substrate protein remaining %)” value at RSK2 was “A (A is defined as 0% ≤ substrate protein remaining % ≤ 80%)”.

Regarding `C[C@@H]1CNC(=O)c2cc3ccc(C(=O)Nc4cnn(Cc5ccc(N6CCN(Cc7cccc(N8CCC(=O)NC8=O)c7)CC6)cc5)c4)nc3n21` [GT-07928, (R)-N-(1-(4-(4-(3-(2,4-dioxotetrahydropyrimidin-1(2H)-yl)benzyl)piperazin-1-yl)benzyl)-1H-pyrazol-4-yl)-9-methyl-6-oxo-6,7,8,9-tetrahydropyrido[3',2':4,5]py rrolo[1,2-a]pyrazine-2-carboxamide], the “Degradation of substrate protein RSK1 (substrate protein remaining %)” value at RSK1 is “A (A is defined as 0% ≤ substrate protein remaining % ≤ 80%)”. Besides, the “Degradation of substrate protein RSK2 (substrate protein remaining %)” value on RSK2 was “A (A is defined as 0% ≤ substrate protein remaining % ≤ 80%)”.

The values above are taken from patent EP4678638A1, “NEW E3 UBIQUITIN LIGASE LIGAND, PROTEIN DEGRADATION AGENT AND USE THEREOF” (priority 2023, dated 2024).
